{"source": "BindingDB's records for doi:10.1021/jm00099a007", "about": "(Merck Research Laboratories, 1992)", "molecular_target": "T1, Gag-Pol polyprotein [588-1027]/[588-1147] (Human immunodeficiency virus 1, UniProt P04585)", "T1 construct": "588-1027; 588-1147", "experiment": "HIV-1 RT Assay", "data": [{"smiles": "O=c1[nH]c2ccccc2cc1NCc1ccc2ccccc2c1", "note": "[3-[(naphthalen-2-ylmethyl)amino]-1,2-dihydroquinolin-2-one]", "values": [{"measurement": "IC50", "value": "> 300", "unit": "µM"}]}]}
